Experimental data published in publication PMC6105845, “Nucleotide Prodrug Containing a Nonproteinogenic Amino Acid To Improve Oral Delivery of a Hepatitis C Virus Treatment” (Antimicrobial Agents and Chemotherapy, 2018).
Values after ≈ are worked out from the molar mass of the structure shown. Values joined by “and” are separate entries in the source; they are usually repeats but may differ in a detail not shown here. Equal entries are not always repeated. Where two headings read alike, the source gives them in different places.

Tests used:
[1] = Metabolic stability in hepatic S9 fraction, dog; type: in vitro ADME; details: 2 μM
Method: (§1) Blood plasma and S9 stability was studied as described previously ([8]). In brief, the compounds were incubated at 2 μM in hamster, rat, dog, monkey, or human plasma samples for up to 4 h at 37°C. For S9 stability, the compounds were incubated at 2 μM in hamster, rat, dog, monkey, or human intestinal and hepatic S9 fractions for up to 90 min at 37°C in the presence of NADPH and uridine 5′-diphosphoglucuronic acid trisodium salt (UDPGA) (Sigma-Adrich). The samples were analyzed by liquid chromatography coupled to triple-quadrupole mass spectrometry (LC-MS/MS).
(§2) The data (analyte-to-internal standard peak area ratio) were plotted on a semilog scale and fitted using an exponential fit. The half-life (t1/2) was determined assuming first-order kinetics.

[2] = Metabolic stability in intestinal S9 fraction, monkey; type: in vitro ADME; details: monkey (cynomolgus)
Method: as §1, §2

[3] = Thermodynamic solubility (shaking flask, simulated intestinal fluid); type: physicochemical; details: for solubility thermodynamic: fessif, thermodynamic from solid, crystalline free base GS-6620, amorphous GS2
Method: The samples were incubated at 37°C for 1 h, followed by centrifugation at 2,800 relative centrifugal force (RCF) for 30 min at room temperature. Thermodynamic solubility was determined with the crystalline-free base of GS-6620 or amorphous GS2 using the shaking flask method. The concentrations of the compounds in supernatants were determined by HPLC.

[4] = Plasma pharmacokinetics in pentagastrin-pretreated portal vein-cannulated dogs; type: in vivo, male beagle dogs; details: for bioavailability / AUC(0-t) / Cmax: male, beagle; for bioavailability / Fa (fraction absorbed): oral 5 mg/kg vs 0.5 mg/kg intravenous infusion; for bioavailability: read-out: F (oral bioavailability)
Method: Plasma and liver pharmacokinetic studies were completed as described previously ([8]). Briefly, intact Golden Syrian hamsters, Sprague-Dawley rats, and beagle dogs (intact and portal vein cannulated) were orally administered a single dose of GS2 or GS2(R+S) in solution formulations at between 5 and 50 mg/kg of body weight. Similarly, studies were completed by administering GS-6620 or its 1:1 diastereomeric mixture in solution or micronized suspension formulations at between 5 and 21.1 mg/kg. Animal doses were chosen to correspond to surface area-adjusted human doses targeted for clinical development (150 to 500 mg). In order to understand hepatic extraction (EH), fraction absorbed (Fa), and oral bioavailability (F), intravenous (i.v.) and oral (p.o.) studies were conducted with GS2 and GS-6620 in intact and portal vein-cannulated dogs. Intravenous dosing used solution formulations at 0.5 mg/kg of the respective prodrugs. Animals were housed and handled in accordance with the Guide for the Care and Use of Laboratory Animals ([23]). The protocols were reviewed and approved by the Institutional Animal Care and Use Committees (IACUC).
Plasma samples were prepared through protein precipitation extraction by adding acetonitrile to a final concentration of 70% containing internal standard (5-iodotubericidin). Samples were dried completely under a stream of nitrogen at 40°C and reconstituted with 0.2% formic acid in water to 3 times the original volume of plasma for LC-MS/MS analysis. Liver samples were prepared by sectioning into smaller pieces and collecting into preweighed 15-ml conical tubes kept on dry ice. Ice-cold extraction buffer (0.1% KOH and 67 mM EDTA in 70% methanol containing chloro-ATP as an internal standard) was added to ∼0.5 g of each liver sample. The mixtures were promptly homogenized using an Omni-Tip TH with disposable, hard tissue homogenizer probes (Omni International). Aliquots of the homogenate were filtered by using 0.2-μm 96-well polypropylene filter plates (Varian Captiva). The filtrates were evaporated to dryness and reconstituted with an equal volume of 1 mM ammonium phosphate buffer (pH 7) prior to LC-MS/MS analysis. Plasma and liver samples were analyzed on a Sciex API-4000 (Applied Biosystems, Foster City, CA) LC-MS/MS instrument. Analytes in plasma samples were separated on a 4-μm, 150- by 2-mm Synergi Max-RP column (Phenomenex, Torrance, CA) using a mobile phase containing 0.2% formic acid and a linear gradient from 2% to 100% acetonitrile at a flow rate of 250 μl/min over 7 min. Analytes in liver samples were separated using a 50- by 2-mm by 2.5-μm Luna C18(2) HST column (Phenomenex, Torrance, CA). A multistage linear gradient from 10% (mobile phase A) to 50% acetonitrile (mobile phase B) in a mobile phase containing 3 mM ammonium formate (pH 5.0) with 10 mM dimethylhexylamine at a flow rate of 0.15 ml/min was used to elute the analytes.
Noncompartmental pharmacokinetic parameters were calculated using WinNonlin 5.01 (Pharsight Corporation, Mountain View, CA). Equations for calculating hepatic extraction (EH; equation 2), fraction absorbed (Fa; equation 3), and oral bioavailability (F; equation 4) have been presented previously ([25]). (2) EH=AUCPO,portal vein−AUCPO,jugular vein/AUCPO,portal vein (3) Fa=F/1−EH (4) F=AUCPO,jugular vein÷DosePO/AUCIV÷DoseIV

HCV GT2a replicon = assay: HCV GT2a replicon, transiently transfected Huh-1C cells; type: cell-based, hepatitis C virus; details: for EC50: Hepatitis C virus, GT2A, 72 h
Method: (§3) GT1a, GT1b, and GT2a are authentic subgenomic replicons of the indicated strain. Creation of these HCV replicons was reported previously ([7]).
(§4) RNA was transcribed in vitro using a MEGAscript […] kit (Ambion, Austin, TX) and transfected into Huh-Lunet and −1C cells using published methods ([21], [22]).
(§5) The EC50s, defined as the concentration at which there was a measured 50% decrease in HCV replicon level, were determined in replicon assay as previously described ([24]). Briefly, replicon cells were seeded into 96-well plates. Compounds were serially diluted in DMSO at 200× final concentrations and then added to the assay plate. Luciferase expression was quantified after 3 days of incubation using a commercial luciferase assay (Promega, Madison, WI). Data were analyzed using GraphPad Prism 6.0 (La Jolla, CA).
(§6) X represents log of compound concentration and Y represents replicon replication as the percentage of DMSO control. EC50s were calculated as an average from at least three independent experiments.

HCV GT1b replicon = assay: HCV GT1b replicon, transiently transfected Huh-1C cells; type: cell-based, hepatitis C virus; details: for EC50: Hepatitis C virus, GT1B, 72 h
Method: as §3, §4, §5, §6

[5] = fed-state simulated intestinal fluid
[6] = dog, plasma (jugular vein), oral 5 mg/kg, GS2 in solution, GS-6620 in suspension of micronized material, read-out: AUC0–t jugular
[7] = dog, plasma (jugular vein), oral 5 mg/kg, GS2 in solution, GS-6620 in suspension of micronized material, read-out: Cmax jugular
[8] = dog, plasma (portal vein), oral 5 mg/kg, GS2 in solution, GS-6620 in suspension of micronized material, read-out: AUC0–t portal
[9] = dog, plasma (portal vein), oral 5 mg/kg, GS2 in solution, GS-6620 in suspension of micronized material, read-out: Cmax portal
[10] = dog, plasma, 0.5-mg/kg intravenous infusion (30 min), n = 3, read-out: AUC0–t following intravenous infusion

Question: For `CC(C)OC(=O)[C@H](C)N[P@](=O)(OC[C@H]1O[C@@](C#N)(c2ccc3c(N)ncnn23)[C@](C)(O)[C@@H]1OC(=O)C(C)C)Oc1ccccc1` [GS-6620, reference compound], which “Metabolic stability in hepatic S9 fraction, predicted hepatic extraction” value [1] is on record?
Answer: 73%

Question: What about the half-life at 2 μM [2] of the same compound?
Answer: 0.0933 h

Question: And the solubility thermodynamic [3, 5]?
Answer: 7.8 µM (≈ 5.03 µg/mL)

Question: And the bioavailability ([4]; dog, plasma (jugular vein))?
Answer: 15%

Question: What about the AUC(0-t) [4, 6] of the same compound?
Answer: 0.33 ± 0.28 µM·h

Question: And the Cmax [4, 7]?
Answer: 620 ± 430 nM

Question: And the AUC(0-t) [4, 8]?
Answer: 1.68 ± 0.8 µM·h

Question: And the Cmax [4, 9]?
Answer: 3650 ± 860 nM

Question: And the AUC(0-t) [4, 10]?
Answer: 0.2 µM·h

Question: What about the “EH (hepatic extraction)” value ([4]; oral 5 mg/kg) of the same compound?
Answer: 80%

Question: And the “Fa (fraction absorbed)” value [4]?
Answer: 79%

Question: What about the “time by which plasma concentration decreased to undetectable” value ([4]; oral 5 mg/kg, postdose) of the same compound?
Answer: ≤ 2 h

Question: What about the EC50 (HCV GT2a replicon) of the same compound?
Answer: 27 ± 10 nM

Question: What about the EC50 (HCV GT1b replicon) of the same compound?
Answer: 35 ± 15 nM

Question: What does the source list for `CC(C)OC(=O)C(C)(C)N[P@](=O)(OC[C@H]1O[C@@](C#N)(c2ccc3c(N)ncnn23)[C@](C)(O)[C@@H]1O)Oc1ccccc1` [GS2]?
Answer: Metabolic stability in hepatic S9 fraction, predicted hepatic extraction [1]: 42%; half-life at 2 μM [2]: 3.83 h; difference in solubility between fed and fasted simulated intestinal fluid [3]: less than 30%; thermodynamic solubility higher than GS-6620 [3, 5]: > 30 fold; solubility thermodynamic [3, 5]: 430 µM (≈ 253 µg/mL); Fa in dog higher than corresponding L-alanine-containing prodrug ([4]; dog, in vivo): more than 5 fold; bioavailability ([4]; dog, plasma (jugular vein)): 13%; AUC(0-t) [4, 6]: 0.44 ± 0.09 µM·h; Cmax [4, 7]: 430 ± 90 nM; AUC(0-t) [4, 8]: 1.77 ± 0.26 µM·h; Cmax [4, 9]: 1610 ± 350 nM; AUC(0-t) [4, 10]: 0.34 µM·h; EH (hepatic extraction) ([4]; oral 5 mg/kg): 75%; maximal portal concentration lower than GS-6620 ([4]; oral 5 mg/kg): approximately 2 fold; Fa (fraction absorbed) [4]: 51.6% and 52%; Fold (GS2/GS-6620) (HCV GT2a replicon; EC50 ratio, GT2a, Huh-1C): 2.3; EC50 (HCV GT2a replicon): 61 ± 8 nM; Fold (GS2/GS-6620) (HCV GT1b replicon; EC50 ratio, GT1b, Huh-1C): 3.1; EC50 (HCV GT1b replicon): 110 ± 20 nM
